The results in this text go back to US9260439B2, “Dihydropyrrolopyrimidine derivatives” (PFIZER INC., priority 2014, dated 2016).

One may read the Ki as a measure of affinity in units of concentration, obtained from inhibition or displacement.

truncated PI3Kα (p110α/iSH2 p85α), sequence (P42336 whole entry, the tested form may be a part): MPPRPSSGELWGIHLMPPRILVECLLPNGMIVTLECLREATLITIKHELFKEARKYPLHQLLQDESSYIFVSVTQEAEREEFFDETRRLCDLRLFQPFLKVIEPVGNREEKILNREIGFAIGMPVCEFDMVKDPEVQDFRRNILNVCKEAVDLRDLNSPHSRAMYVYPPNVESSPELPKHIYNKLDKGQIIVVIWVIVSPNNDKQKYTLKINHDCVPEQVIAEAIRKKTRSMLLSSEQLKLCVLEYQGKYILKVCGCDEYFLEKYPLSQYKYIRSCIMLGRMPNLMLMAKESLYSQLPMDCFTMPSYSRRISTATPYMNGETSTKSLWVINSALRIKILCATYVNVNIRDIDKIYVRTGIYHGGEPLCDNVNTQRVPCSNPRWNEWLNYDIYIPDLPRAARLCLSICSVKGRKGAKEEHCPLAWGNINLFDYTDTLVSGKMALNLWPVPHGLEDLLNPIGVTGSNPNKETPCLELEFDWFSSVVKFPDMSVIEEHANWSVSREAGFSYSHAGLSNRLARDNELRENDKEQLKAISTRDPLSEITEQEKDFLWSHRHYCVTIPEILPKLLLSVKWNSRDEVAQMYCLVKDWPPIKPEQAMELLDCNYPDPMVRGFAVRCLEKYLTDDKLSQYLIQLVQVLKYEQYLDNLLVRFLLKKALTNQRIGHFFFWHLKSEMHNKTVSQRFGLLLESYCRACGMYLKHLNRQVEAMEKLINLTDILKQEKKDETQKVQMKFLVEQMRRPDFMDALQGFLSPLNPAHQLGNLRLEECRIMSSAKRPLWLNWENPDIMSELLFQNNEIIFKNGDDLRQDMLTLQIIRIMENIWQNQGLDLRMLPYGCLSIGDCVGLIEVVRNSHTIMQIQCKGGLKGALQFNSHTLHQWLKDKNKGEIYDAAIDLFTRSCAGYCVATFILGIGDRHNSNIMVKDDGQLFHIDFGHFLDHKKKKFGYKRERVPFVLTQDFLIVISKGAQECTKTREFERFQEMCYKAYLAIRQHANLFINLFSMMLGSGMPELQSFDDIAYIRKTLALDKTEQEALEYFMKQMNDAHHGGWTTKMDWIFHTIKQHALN

The experiment has as its target truncated PI3Kα (p110α/iSH2 p85α) (Homo sapiens (Human), UniProt P42336). In words: PI3KA_Act fluorescence polarization kinase assay (Ki). The experiment is classed as biochemical. Conditions: 1 mM ATP. A digest of the protocol:
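Ki values result from fitting fluorescence polarization signals to the Morrison equation for tight-binding competitive inhibitors. The detector was GST-Grp1 PH domain with TAMRA-PIP3, read after a 30 min room-temperature reaction of 0.5 nM truncated PI3Kα and 30 μM PIP2 at pH 7.4 in HEPES/NaCl/MgCl2/DTT/CHAPS buffer. Compounds were tested as 12-point 3-fold dilutions from 3 μM.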
Background: Fluorescence polarisation rises when a labelled molecule tumbles more slowly, as on binding a larger partner.
On to `C[C@H]1COCCN1c1nc(-c2cnc(N)nc2)c2c(n1)N([C@@]1(C)CCN(C(=O)CN(C)C)C1)CC2` [Example 483, 1-[(3S)-3-{4-(2-aminopyrimidin-5-yl)-2-[(3S)-3-methylmorpholin-4-yl]-5,6-dihydro-7H-pyrrolo[2,3-d]pyrimidin-7-yl}-3-methylpyrrolidin-1-yl]-2-(dimethylamino)ethanone], for which the “PI3KA_Act Ki” value was determined as 0.049 nM.

On to `C[C@H]1COCCN1c1nc(-c2cnc(N)nc2)c2c(n1)N(C(C)(C)C)CC2` [Example 157], for which the “PI3KA_Act Ki” value is given as 0.173 nM.

Turning to `CC1(N2CCc3c(-c4cnc(N)nc4)nc(N4CCOCC4)nc32)CNC1` [Example 199], the “PI3KA_Act Ki” value stood at 0.151 nM.

As for `C[C@H]1COCCN1c1nc(-c2cnc(N)nc2)c2c(n1)N([C@@H]1CCN(P(C)(C)=O)C1)CC2` [Example 177], the “PI3KA_Act Ki” value was 0.615 nM.

For `C[C@]1(N2CCc3c(-c4cnc(N)nc4)nc(N4CCOCC4)nc32)CCN(C(=O)C2(N)CCC2)C1` [Example 346, (1-aminocyclobutyl) {(3S)-3-[4-(2-aminopyrimidin-5-yl)-2-(morpholin-4-yl)-5,6-dihydro-7H-pyrrolo[2,3-d]pyrimidin-7-yl]-3-methylpyrrolidin-1-yl}methanone], the “PI3KA_Act Ki” value stood at 0.125 nM.

Take `C[C@H]1COCCN1c1nc(-c2cnc(N)nc2)c2c(n1)N([C@@]1(C)CCN(C(=O)[C@H]3CCCO3)C1)CC2` [Example 501, [(3S)-3-{4-(2-aminopyrimidin-5-yl)-2-[(3S)-3-methylmorpholin-4-yl]-5,6-dihydro-7H-pyrrolo[2,3-d]pyrimidin-7-yl}-3-methylpyrrolidin-1-yl][(2R)-tetrahydrofuran-2-yl]methanone]: the “PI3KA_Act Ki” value turned out to be 0.035 nM.

As to `COC(=O)N1CC[C@@](C)(N2CCc3c(-c4cnc(N)nc4)nc(N4CCOCC4)nc32)C1` [Example 214], the “PI3KA_Act Ki” value is 0.128 nM.

As to `CC[C@H](N)C(=O)N1CC[C@](C)(N2CCc3c(-c4cnc(N)nc4)nc(N4CCOC[C@@H]4C)nc32)C1.Cl` [Example 477, (2S)-2-amino-1-[(3S)-3-{4-(2-aminopyrimidin-5-yl)-2-[(3S)-3-methylmorpholin-4-yl]-5,6-dihydro-7H-pyrrolo[2,3-d]pyrimidin-7-yl}-3-methylpyrrolidin-1-yl]butan-1-one hydrochloride], the “PI3KA_Act Ki” value is on record as 0.038 nM.

On to `C[C@@]1(N2CCc3c(-c4cnc(N)nc4)nc(N4CCOCC4)nc32)CCN(C(=O)N2CC(C#N)C2)C1` [Example 364, 1-({(3R)-3-[4-(2-aminopyrimidin-5-yl)-2-(morpholin-4-yl)-5,6-dihydro-7H-pyrrolo[2,3-d]pyrimidin-7-yl]-3-methylpyrrolidin-1-yl}carbonyl)azetidine-3-carbonitrile], for which the “PI3KA_Act Ki” value was 0.262 nM.

`C[C@H]1COCCN1c1nc(-c2cnc(N)nc2)c2c(n1)N([C@]1(C)CCN(S(C)(=O)=O)C1)CC2` [Example 174]: the “PI3KA_Act Ki” value came out at 0.030 nM.

`C[C@]1(N2CCc3c(-c4cnc(N)nc4)nc(N4CCOCC4)nc32)CCN(C(=O)OCC2CNC2)C1.Cl` [Example 413, azetidin-3-ylmethyl (3S)-3-[4-(2-aminopyrimidin-5-yl)-2-(morpholin-4-yl)-5,6-dihydro-7H-pyrrolo[2,3-d]pyrimidin-7-yl]-3-methylpyrrolidine-1-carboxylate hydrochloride]: the “PI3KA_Act Ki” value is under 0.018 nM.

With `CC[C@]1(N2CCc3c(-c4cnc(N)nc4)nc(N4CCOCC4)nc32)CCN(C(=O)OC(C)(C)C)C1` [Example 411, tert-butyl (3S)-3-[4-(2-aminopyrimidin-5-yl)-2-(morpholin-4-yl)-5,6-dihydro-7H-pyrrolo[2,3-d]pyrimidin-7-yl]-3-ethylpyrrolidine-1-carboxylate], the “PI3KA_Act Ki” value is reported as under 0.018 nM.

As to `C[C@@]1(N2CCc3c(-c4cnc(N)nc4)nc(N4CCOCC4)nc32)CCN(C(=O)C2(O)CCC2)C1` [Example 344, {(3R)-3-[4-(2-aminopyrimidin-5-yl)-2-(morpholin-4-yl)-5,6-dihydro-7H-pyrrolo[2,3-d]pyrimidin-7-yl]-3-methylpyrrolidin-1-yl}(1-hydroxycyclobutyl) methanone], the “PI3KA_Act Ki” value was determined as 0.098 nM.

Regarding `C[C@]1(N2CCc3c(-c4cnc(N)nc4)nc(N4CCOCC4)nc32)CCN(C(=O)[C@@H]2C[C@@H]2F)C1` [Example 334, {(3S)-3-[4-(2-aminopyrimidin-5-yl)-2-(morpholin-4-yl)-5,6-dihydro-7H-pyrrolo[2,3-d]pyrimidin-7-yl]-3-methylpyrrolidin-1-yl}[(1S,2S)-2-fluorocyclopropyl] methanone], the “PI3KA_Act Ki” value was 0.021 nM.

`CN[C@H]1C[C@H](N2CCc3c(-c4cnc(N)nc4)nc(N4CCOC[C@@H]4C)nc32)C1.Cl` [Example 445, 5-{7-[trans-3-(methylamino)cyclobutyl]-2-[(3S)-3-methylmorpholin-4-yl]-6,7-dihydro-5H-pyrrolo[2,3-d]pyrimidin-4-yl}pyrimidin-2-amine hydrochloride]: the “PI3KA_Act Ki” value was found to be 0.993 nM.

Take `Cn1ccnc1C(=O)N1CC[C@](C)(N2CCc3c(-c4cnc(N)nc4)nc(N4CCOCC4)nc32)C1` [Example 390, {(3S)-3-[4-(2-aminopyrimidin-5-yl)-2-(morpholin-4-yl)-5,6-dihydro-7H-pyrrolo[2,3-d]pyrimidin-7-yl]-3-methylpyrrolidin-1-yl}(1-methyl-1H-imidazol-2-yl)methanone]: the “PI3KA_Act Ki” value was 0.084 nM.

For the compound `C[C@]1(N2CCc3c(-c4cnc(N)nc4)nc(N4CCOCC4)nc32)CCN(C(=O)[C@H]2CCC(=O)N2)C1` [Example 379, (5R)-5-({(3S)-3-[4-(2-aminopyrimidin-5-yl)-2-(morpholin-4-yl)-5,6-dihydro-7H-pyrrolo[2,3-d]pyrimidin-7-yl]-3-methylpyrrolidin-1-yl}carbonyl)pyrrolidin-2-one], the “PI3KA_Act Ki” value was 0.061 nM.

For the compound `C[C@H]1COCCN1c1nc(-c2cnc(N)nc2)c2c(n1)N([C@@]13C[C@@H]1CN(C(=O)OC(C)(C)C)C3)CC2` [Example 527, tert-butyl (1S,5R)-1-{4-(2-aminopyrimidin-5-yl)-2-[(3S)-3-methylmorpholin-4-yl]-5,6-dihydro-7H-pyrrolo[2,3-d]pyrimidin-7-yl}-3-azabicyclo[3.1.0]hexane-3-carboxylate], the “PI3KA_Act Ki” value is under 0.018 nM.

In the case of `CN1CCC(N2CC[C@](C)(N3CCc4c(-c5cnc(N)nc5)nc(N5CCOCC5)nc43)C2)C1=O` (single isomer, unassigned) [Example 426], the “PI3KA_Act Ki” value came out at 0.051 nM.

With `C[C@H]1COCCN1c1nc(-c2cnc(N)nc2)c2c(n1)N(C1CN(C(=O)OCC(=O)N(C)C)C1)CC2` [Example 152], the “PI3KA_Act Ki” value was determined as 0.103 nM.

In the case of `C[C@]1(N2CCc3c(-c4cnc(N)nc4)nc(N4CCOCC4)nc32)CCN(C(=O)[C@H](N)C2CC2)C1.Cl` [Example 297, (2R)-2-amino-1-{(3S)-3-[4-(2-aminopyrimidin-5-yl)-2-(morpholin-4-yl)-5,6-dihydro-7H-pyrrolo[2,3-d]pyrimidin-7-yl]-3-methylpyrrolidin-1-yl}-2-cyclopropylethanone hydrochloride], the “PI3KA_Act Ki” value was found to be 0.019 nM.

Regarding `COCCC(=O)N1CC(N2CCc3c(-c4cnc(N)nc4)nc(N4CCOC[C@@H]4C)nc32)C1` [Example 202], the “PI3KA_Act Ki” value was 1.037 nM.

On to `CC(C)C(C)(C)N1CCc2c(-c3cnc(N)nc3)nc(N3CCOCC3)nc21` [Example 176], for which the “PI3KA_Act Ki” value came to 0.462 nM.

On to `CC(C)(O)CN1CC[C@](C)(N2CCc3c(-c4cnc(N)nc4)nc(N4CCOCC4)nc32)C1` [Example 422, 1-{(3S)-3-[4-(2-aminopyrimidin-5-yl)-2-(morpholin-4-yl)-5,6-dihydro-7H-pyrrolo[2,3-d]pyrimidin-7-yl]-3-methylpyrrolidin-1-yl}-2-methylpropan-2-ol], for which the “PI3KA_Act Ki” value is 0.415 nM.

As for `C[C@@H]1COCCN1c1nc(-c2cnc(N)nc2)c2c(n1)N([C@]1(C)CCN(S(C)(=O)=O)C1)CC2` [Example 232], the “PI3KA_Act Ki” value is recorded as 4.263 nM.

Consider `C[C@]1(N2CCc3c(-c4cnc(N)nc4)nc(N4CCOCC4)nc32)CCN(C(=O)[C@H](N)C(F)(F)F)C1.Cl` [Example 314, (2S)-2-amino-1-{(3S)-3-[4-(2-aminopyrimidin-5-yl)-2-(morpholin-4-yl)-5,6-dihydro-7H-pyrrolo[2,3-d]pyrimidin-7-yl]-3-methylpyrrolidin-1-yl}-3,3,3-trifluoropropan-1-one hydrochloride], for which the “PI3KA_Act Ki” value is under 0.018 nM.

Turning to `C[C@H]1COCCN1c1nc(-c2cnc(N)nc2)c2c(n1)N([C@@]1(C)CCN(C(=O)C3(F)CN(C(=O)OC(C)(C)C)C3)C1)CC2` [Example 497, tert-butyl 3-{[(3S)-3-{4-(2-aminopyrimidin-5-yl)-2-[(3S)-3-methylmorpholin-4-yl]-5,6-dihydro-7H-pyrrolo[2,3-d]pyrimidin-7-yl}-3-methylpyrrolidin-1-yl]carbonyl}-3-fluoroazetidine-1-carboxylate], the Ki was 0.056 nM.

In the case of `C[C@H]1COCCN1c1nc(-c2cnc(N)nc2)c2c(n1)N([C@@]1(C)CCN(C(=O)[C@H]3CCOC3)C1)CC2` [Example 500, [(3S)-3-{4-(2-aminopyrimidin-5-yl)-2-[(3S)-3-methylmorpholin-4-yl]-5,6-dihydro-7H-pyrrolo[2,3-d]pyrimidin-7-yl}-3-methylpyrrolidin-1-yl][(3S)-tetrahydrofuran-3-yl]methanone], the “PI3KA_Act Ki” value turned out to be 0.064 nM.

For the compound `COCCS(=O)(=O)N1CC(N2CCc3c(-c4cnc(N)nc4)nc(N4CCOC[C@@H]4C)nc32)C1` [Example 155], the “PI3KA_Act Ki” value was determined as 0.116 nM.

Take `COC(=O)N1CC[C@@](C)(N2CCc3c(-c4cnc(N)nc4)nc(N4CCOC[C@@H]4C)nc32)C1` [Example 509, methyl (3R)-3-{4-(2-aminopyrimidin-5-yl)-2-[(3S)-3-methylmorpholin-4-yl]-5,6-dihydro-7H-pyrrolo[2,3-d]pyrimidin-7-yl}-3-methylpyrrolidine-1-carboxylate]: the “PI3KA_Act Ki” value amounted to 0.135 nM.
